Each compound was assayed against T1, human PAR4 (Homo sapiens, UniProt Q96RI0) (assay: PAR4 FLIPR assay: antagonism of agonist-peptide-induced calcium mobilization in PAR4-expressing HEK293 cells). Conditions: H-Ala-Phe(4-F)-[…]NH2-induced intracellular calcium mobilization, 11-point curves.
T1 construct: expressed in transfected cells; host or cells: HEK293 PAR4 Clone 1.2A (BMS Arctic ID 383940)
T1 sequence (Q96RI0 18-385): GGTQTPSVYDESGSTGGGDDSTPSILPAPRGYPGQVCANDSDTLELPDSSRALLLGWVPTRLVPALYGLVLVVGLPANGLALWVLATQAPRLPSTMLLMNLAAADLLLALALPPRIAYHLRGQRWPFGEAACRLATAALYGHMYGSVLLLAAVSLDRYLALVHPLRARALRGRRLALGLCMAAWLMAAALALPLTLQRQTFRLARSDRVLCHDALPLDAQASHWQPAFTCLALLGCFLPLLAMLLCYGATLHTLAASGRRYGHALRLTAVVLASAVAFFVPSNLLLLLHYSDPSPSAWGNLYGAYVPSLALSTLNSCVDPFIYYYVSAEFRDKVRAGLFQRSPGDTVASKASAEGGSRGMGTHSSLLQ
Type: cell-based

Row | Compound | IC50 [nM]
1 | COc1cnc2c(-c3nc4cc(F)c(OC)cc4s3)cc(C#N)cc2n1 [Example 221, 8-(5-fluoro-6-methoxybenzo[d]thiazol-2-yl)-3-methoxyquinoxaline-6-carbonitrile] | 21
2 | COc1cnc2c(-c3nc4cc(F)c(OC)cc4s3)cc(CO)cc2n1 [Example 222, (8-(5-fluoro-6-methoxybenzo [d]thiazol-2-yl)-3-methoxyquinoxalin-6-yl)methanol] | 1
3 | COc1cnc2c(-c3nc4c(C)cc(OC)nc4s3)cc(CO)cc2n1 [Example 223, (3-methoxy-8-(5-methoxy-7-methylthiazolo[5,4-b]pyridin-2-yl)quinoxalin-6-yl)methanol] | 10
4 | COc1cnc2c(-c3nc4c(Cl)c(F)c(OC)cc4s3)cc(CO)c(F)c2n1 [Example 224, (8-(4-chloro-5-fluoro-6-methoxybenzo[d]thiazol-2-yl)-5-fluoro-3-methoxyquinoxalin-6-yl)methanol] | 15
5 | COCc1cnc2c(-c3nc4c(C)cc(OCCNS(=O)(=O)c5ccc(F)cc5)cc4s3)cc(C(N)=O)cc2n1 [Example 225, 8-(6-(2-(4-fluorophenylsulfonamido)ethoxy)-4-methylbenzo[d]thiazol-2-yl)-3-(methoxymethyl)quinoxaline-6-carboxamide] | 54
6 | COCc1cnc2c(-c3nc4c(C)cc(OCCNS(=O)(=O)c5ccc(F)cc5)cc4s3)cc(C(=O)N3CCCCC3)cc2n1 [Example 227, 4-fluoro-N-(2-((2-(2-(methoxymethyl)-7-(piperidine-1-carbonyl)quinoxalin-5-yl)-4-methylbenzo[d]thiazol-6-yl)oxy)ethyl)benzenesulfonamide] | 160
7 | COCCNC(=O)c1cc(-c2nc3c(C)cc(OCCNS(=O)(=O)c4ccc(F)cc4)cc3s2)c2ncc(COC)nc2c1 [Example 228, 8-(6-(2-(4-fluorophenylsulfonamido)ethoxy)-4-methylbenzo[d]thiazol-2-yl)-N-(2-methoxyethyl)-3-(methoxymethyl)quinoxaline-6-carboxamide] | 890
8 | C=Cc1cc(-c2nc3c(C)cc(OCCNS(=O)(=O)c4ccc(F)cc4)cc3s2)c2ncc(OC)nc2c1 [Example 229, 4-fluoro-N-(2-((2-(2-methoxy-7-vinylquinoxalin-5-yl)-4-methylbenzo[d]thiazol-6-yl)oxy)ethyl)benzenesulfonamide] | 3.9
9 | C#Cc1cc(-c2nc3c(C)cc(OCCNS(=O)(=O)c4ccc(F)cc4)cc3s2)c2ncc(OC)nc2c1 [Example 230, N-(2-((2-(7-ethynyl-2-methoxyquinoxalin-5-yl)-4-methylbenzo[d]thiazol-6-yl)oxy)ethyl)-4-fluorobenzenesulfonamide] | 2.2
10 | COc1cnc2c(-c3nc4c(C)cc(OCCNS(=O)(=O)c5ccc(F)cc5)cc4s3)cc(C#N)cc2n1 [Example 231, N-(2-((2-(7-cyano-2-methoxyquinoxalin-5-yl)-4-methylbenzo[d]thiazol-6-yl)oxy)ethyl)-4-fluorobenzenesulfonamide] | 1
11 | COCc1cnc2c(-c3nc4c(C)cc(OCCNS(=O)(=O)c5ccc(F)cc5)cc4s3)cc(C#N)cc2n1 [Example 232, N-(2-((2-(7-cyano-2-(methoxymethyl)quinoxalin-5-yl)-4-methylbenzo[d]thiazol-6-yl)oxy)ethyl)-4-fluorobenzenesulfonamide] | 0.7
12 | COCc1cnc2c(-c3nc4c(C)cc(OC)cc4s3)cc(C#N)cc2n1 [Example 233, 8-(6-methoxy-4-methylbenzo[d]thiazol-2-yl)-3-(methoxymethyl)quinoxaline-6-carbonitrile] | 0.4
13 | C=Cc1cc(-c2nc3c(C)cc(OCCNS(=O)(=O)c4ccc(F)cc4)cc3s2)c2ncc(COC)nc2c1 [Example 234, 4-fluoro-N-(2-((2-(2-(methoxymethyl)-7-vinylquinoxalin-5-yl)-4-methylbenzo[d]thiazol-6-yl)oxy)ethyl)benzenesulfonamide] | 1.4

Source: patent US12060347B2 (BRISTOL-MYERS SQUIBB COMPANY, priority 2016, dated 2024)
